Consider 22 molecules from US12503438B2, “Compounds for the treatment of kinase-dependent disorders” (Exelixis, Inc., priority 2019, dated 2025).

Chain of KDR (P35968 20-1356): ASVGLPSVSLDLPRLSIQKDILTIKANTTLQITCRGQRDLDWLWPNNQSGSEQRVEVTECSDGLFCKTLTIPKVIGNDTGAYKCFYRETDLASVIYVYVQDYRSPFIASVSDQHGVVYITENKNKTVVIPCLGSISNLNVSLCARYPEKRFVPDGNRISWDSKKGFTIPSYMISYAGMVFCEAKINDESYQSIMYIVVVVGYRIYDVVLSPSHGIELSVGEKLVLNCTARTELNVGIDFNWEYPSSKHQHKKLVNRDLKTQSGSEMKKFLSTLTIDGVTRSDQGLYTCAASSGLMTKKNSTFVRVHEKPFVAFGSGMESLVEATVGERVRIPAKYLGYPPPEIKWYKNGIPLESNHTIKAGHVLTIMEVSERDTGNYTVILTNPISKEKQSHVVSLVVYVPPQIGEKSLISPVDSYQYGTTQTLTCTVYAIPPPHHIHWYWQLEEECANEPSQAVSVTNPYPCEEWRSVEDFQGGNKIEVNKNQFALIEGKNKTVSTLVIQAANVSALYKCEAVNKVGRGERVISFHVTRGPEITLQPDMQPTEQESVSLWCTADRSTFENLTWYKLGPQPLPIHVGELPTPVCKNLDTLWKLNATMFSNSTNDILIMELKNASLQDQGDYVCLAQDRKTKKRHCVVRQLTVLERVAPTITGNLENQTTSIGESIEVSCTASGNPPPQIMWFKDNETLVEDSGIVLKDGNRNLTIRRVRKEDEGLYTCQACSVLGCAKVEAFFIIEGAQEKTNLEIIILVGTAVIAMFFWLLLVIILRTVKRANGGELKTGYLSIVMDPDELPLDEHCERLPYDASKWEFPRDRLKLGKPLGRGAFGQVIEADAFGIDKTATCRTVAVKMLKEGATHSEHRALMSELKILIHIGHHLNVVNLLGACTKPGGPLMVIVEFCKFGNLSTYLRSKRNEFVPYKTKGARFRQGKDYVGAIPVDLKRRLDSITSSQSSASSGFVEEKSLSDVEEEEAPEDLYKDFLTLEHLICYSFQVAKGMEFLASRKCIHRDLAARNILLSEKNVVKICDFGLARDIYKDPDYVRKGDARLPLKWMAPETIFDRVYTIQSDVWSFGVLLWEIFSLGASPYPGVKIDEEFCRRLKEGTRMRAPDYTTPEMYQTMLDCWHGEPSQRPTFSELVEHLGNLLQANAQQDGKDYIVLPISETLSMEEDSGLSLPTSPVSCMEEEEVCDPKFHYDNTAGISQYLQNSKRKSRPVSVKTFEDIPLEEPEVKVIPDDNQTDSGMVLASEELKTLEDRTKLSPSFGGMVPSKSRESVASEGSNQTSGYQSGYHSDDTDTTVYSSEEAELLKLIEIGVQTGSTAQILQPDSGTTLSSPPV

The target in this assay is KDR (Homo sapiens, UniProt P35968). The assay can be described thus: KDR autophosphorylation ELISA in HUVEC cells. On the set-up: endogenous in cells; host or cells: HUVEC (Lonza #C2519A). The following applies: cellular activity, VEGF165-stimulated, phospho-KDR ELISA. It counts as cell-based. The method, boiled down:
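Read-out: phospho-KDR ELISA on cell lysates, quantified against a phospho-KDR standard, normalised to VEGF-stimulated DMSO (100%) and unstimulated (0%) wells, IC50 by 4-parameter fit. Cells were 24 h serum-starved HUVEC given compound for 1 h, then 100 ng/mL VEGF165 for 5 min.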
(ELISA stands for enzyme-linked immunosorbent assay.)
Turning to `O=C(Nc1ccc(F)cc1)C1(C(=O)Nc2ccc(Oc3ccnc4cc(-c5cnc[nH]5)ccc34)cc2)CC1` [Compound 72, 1-N′-(4-Fluorophenyl)-1-N-[4-[7-(1H-imidazol-5-yl)quinolin-4-yl]oxyphenyl]cyclopropane-1,1-dicarboxamide], the IC50 is at most 10 nM.
With `Cn1ncc(-c2ccc3c(Oc4ccc(NC(=O)C5(C(=O)Nc6ccc(F)cc6)CC5)cc4)ccnc3c2)n1` [Compound 86, 1-N′-(4-Fluorophenyl)-1-N-[4-[7-(2-methyltriazol-4-yl)quinolin-4-yl]oxyphenyl]cyclopropane-1,1-dicarboxamide] the figure was at most 10 nM; with `N#Cc1ccc(-c2ccc3c(Oc4ccc(NC(=O)C5(C(=O)Nc6ccc(F)cc6)CC5)cc4)ccnc3c2)cn1` [Compound 42, 1-N-[4-[7-(6-Cyanopyridin-3-yl)quinolin-4-yl]oxyphenyl]-1-N′-(4-fluorophenyl)cyclopropane-1,1-dicarboxamide], 10 to 100 nM.
With `O=C(Nc1ccc(F)cc1)C1(C(=O)Nc2ccc(Oc3ccnc4cc(-c5ccccn5)ccc34)cc2)CC1` [Compound 85, 1-N′-(4-Fluorophenyl)-1-N-[4-(7-pyridin-2-ylquinolin-4-yl)oxyphenyl]cyclopropane-1,1-dicarboxamide] the figure was 10 to 100 nM; with `CC(=O)N1CCC(n2cc(-c3ccc4c(Oc5ccc(NC(=O)C6(C(=O)Nc7ccc(F)cc7)CC6)cc5)ccnc4c3)cn2)CC1` [Compound 62, 1-N-[4-[7-[1-(1-Acetylpiperidin-4-yl)pyrazol-4-yl]quinolin-4-yl]oxyphenyl]-1-N′-(4-fluorophenyl)cyclopropane-1,1-dicarboxamide], at most 10 nM; with `Cn1cc(-c2ccc3c(Oc4ccc(NC(=O)C5(C(=O)Nc6ccc(F)cc6)CC5)cc4)ccnc3c2)cn1` [Compound 11, 1-N′-(4-Fluorophenyl)-1-N-[4-[7-(1-methylpyrazol-4-yl)quinolin-4-yl]oxyphenyl]cyclopropane-1,1-dicarboxamide], at most 10 nM.
With `O=C(Nc1ccc(F)cc1)C1(C(=O)Nc2ccc(Oc3ccnc4cc(-c5ccc[n+]([O-])c5)ccc34)cc2)CC1` [Compound 109, 1-N′-(4-Fluorophenyl)-1-N-[4-[7-(1-oxidopyridin-1-ium-3-yl)quinolin-4-yl]oxyphenyl]cyclopropane-1,1-dicarboxamide], the concentration for half-maximal inhibition (IC50) is at most 10 nM.
`N#Cc1cncc(-c2ccc3c(Oc4ccc(NC(=O)C5(C(=O)Nc6ccc(F)cc6)CC5)cc4)ccnc3c2)c1` [Compound 40, 1-N-[4-[7-(5-Cyanopyridin-3-yl)quinolin-4-yl]oxyphenyl]-1-N′-(4-fluorophenyl)cyclopropane-1,1-dicarboxamide] had an IC50 of 10 to 100 nM.
With `O=C(Nc1ccc(F)cc1)C1(C(=O)Nc2ccc(Oc3ccnc4cc(-c5cc6n(n5)CCC6)ccc34)cc2)CC1` [Compound 124, 1-N-[4-[7-(5,6-Dihydro-4H-pyrrolo[1,2-b]pyrazol-2-yl)quinolin-4-yl]oxyphenyl]-1-N′-(4-fluorophenyl)cyclopropane-1,1-dicarboxamide] the figure was 10 to 100 nM; with `Cc1cncc(-c2ccc3c(Oc4ccc(NC(=O)C5(C(=O)Nc6ccc(F)cc6)CC5)cc4)ccnc3c2)c1` [Compound 46, 1-N′-(4-Fluorophenyl)-1-N-[4-[7-(5-methylpyridin-3-yl)quinolin-4-yl]oxyphenyl]cyclopropane-1,1-dicarboxamide], 10 to 100 nM; with `CNC(=O)c1cc2c(Oc3ccc(NC(=O)C4(C(=O)Nc5ccc(F)cc5)CC4)cc3)ccnc2cc1-c1cnn(C)c1` [Compound 77, 1-N′-(4-Fluorophenyl)-1-N-[4-[6-(methylcarbamoyl)-7-(1-methylpyrazol-4-yl)quinolin-4-yl]oxyphenyl]cyclopropane-1,1-dicarboxamide], 10 to 100 nM.
`O=C(Nc1ccc(F)cc1)C1(C(=O)Nc2cc(F)c(Oc3ccnc4cc(-c5cccnc5)ccc34)cc2F)CC1` [Compound 115, 1-N′-[2,5-Difluoro-4-(7-pyridin-3-ylquinolin-4-yl)oxyphenyl]-1-N-(4-fluorophenyl)cyclopropane-1,1-dicarboxamide] showed a concentration for half-maximal inhibition (IC50) of at most 10 nM.
With `O=C(Nc1ccc(F)cc1)C1(C(=O)Nc2cc(F)c(Oc3ccnc4cc(-c5cnn(C(F)F)c5)ccc34)cc2F)CC1` [Compound 118, 1-N′-[4-[7-[1-(Difluoromethyl)pyrazol-4-yl]quinolin-4-yl]oxy-2,5-difluorophenyl]-1-N-(4-fluorophenyl)cyclopropane-1,1-dicarboxamide] the figure was 10 to 100 nM.
`O=C(Nc1ccc(F)cc1)C1(C(=O)Nc2ccc(Oc3ccnc4cc(-c5ccncn5)ccc34)cc2)CC1` [Compound 114, 1-N′-(4-Fluorophenyl)-1-N-[4-(7-pyrimidin-4-ylquinolin-4-yl)oxyphenyl]cyclopropane-1,1-dicarboxamide] had a half-inhibitory concentration (IC50) of at most 10 nM.
With `Cn1cc(-c2ccc3c(Oc4ccc(NC(=O)C5(C(=O)N6CCc7cc(F)ccc76)CC5)cc4)ccnc3c2)cn1` [Compound 81, 1-(5-Fluoro-2,3-dihydroindole-1-carbonyl)-N-[4-[7-(1-methylpyrazol-4-yl)quinolin-4-yl]oxyphenyl]cyclopropane-1-carboxamide] the figure was above 300 nM.
With `Cc1cc2c(Oc3c(F)cc(NC(=O)C4(C(=O)Nc5ccc(F)cc5)CC4)c(F)c3F)ccnc2cc1-c1cnn(C)c1` [Compound 110, 1-N-(4-Fluorophenyl)-1-N′-[2,3,5-trifluoro-4-[6-methyl-7-(1-methylpyrazol-4-yl)quinolin-4-yl]oxyphenyl]cyclopropane-1,1-dicarboxamide] the figure was 100 to 300 nM; with `CCn1cc(-c2ccc3c(Oc4ccc(NC(=O)C5(C(=O)Nc6ccc(F)cc6)CC5)cc4)ccnc3c2)cn1` [Compound 20, 1-N-[4-[7-(1-Ethylpyrazol-4-yl)quinolin-4-yl]oxyphenyl]-1-N′-(4-fluorophenyl)cyclopropane-1,1-dicarboxamide], at most 10 nM.
With `Cc1cc(F)cc(C)c1NC(=O)C1(C(=O)Nc2ccc(Oc3ccnc4cc(-c5cnn(C)c5)ccc34)cc2)CC1` [Compound 82, 1-N′-(4-Fluoro-2,6-dimethylphenyl)-1-N-[4-[7-(1-methylpyrazol-4-yl)quinolin-4-yl]oxyphenyl]cyclopropane-1,1-dicarboxamide] the figure was above 300 nM; with `O=C(Nc1ccc(F)cc1)C1(C(=O)Nc2ccc(Oc3ccnc4cc(-c5cnn(C6CCNCC6)c5)ccc34)cc2)CC1` [Compound 60, 1-N′-(4-Fluorophenyl)-1-N-[4-[7-(1-piperidin-4-ylpyrazol-4-yl)quinolin-4-yl]oxyphenyl]cyclopropane-1,1-dicarboxamide], 10 to 100 nM.
The molecule `CN1CCC(n2cc(-c3ccc4c(Oc5ccc(NC(=O)C6(C(=O)Nc7ccc(F)cc7)CC6)cc5)ccnc4c3)cn2)CC1` [Compound 61, 1-N′-(4-Fluorophenyl)-1-N-[4-[7-[1-(1-methylpiperidin-4-yl)pyrazol-4-yl]quinolin-4-yl]oxyphenyl]cyclopropane-1,1-dicarboxamide] gave an IC50 of 10 to 100 nM.
In the case of `O=C(Nc1ccc(F)cc1)C1(C(=O)Nc2ccc(Oc3ccnc4cc(-c5cnn(C6CC6)c5)ccc34)cc2)CC1` [Compound 22, 1-N-[4-[7-(1-Cyclopropylpyrazol-4-yl)quinolin-4-yl]oxyphenyl]-1-N′-(4-fluorophenyl)cyclopropane-1,1-dicarboxamide] it was 10 to 100 nM; in that of `O=C(Nc1ccc(F)cc1)C1(C(=O)Nc2ccc(Oc3ccnc4cc(-c5cnn(C(F)F)c5)ccc34)cc2)CC1` [Compound 13, 1-N-[4-[7-[1-(Difluoromethyl)pyrazol-4-yl]quinolin-4-yl]oxyphenyl]-1-N′-(4-fluorophenyl)cyclopropane-1,1-dicarboxamide], at most 10 nM.

One may read the IC50 as the concentration that inhibits the measured activity by half.
